In patent publication US7642221B2, “Substituted thien-3-yl-sulphonylamino(thio)carbonyl-triazoline(ethi)ones” (Bayer Aktiengesellschaft, priority 1999, dated 2010):

What was measured:
Format in all cases: in vivo
Setaria [1] = experiment: Pre-emergence test/greenhouse; settings: greenhouse, rated after three weeks
Experimental: (§1) • Solvent: 5 parts by weight of acetone • Emulsifier: 1 part by weight of alkylaryl polyglycol ether
(§2) To produce a suitable preparation of active compound, 1 part by weight of active compound is mixed with the stated amount of solvent, the stated amount of emulsifier is added and the concentrate is diluted with water to the desired concentration.
(§3) Seeds of the test plants are sown in normal soil. After about 24 hours, the soil is sprayed with the preparation of active compound such that the particular amount of active compound desired is applied per unit area. The concentration of the spray liquor is chosen so that the particular amount of active compound desired is applied in 1000 liters of water per hectare.
(§4) After three weeks, the degree of damage to the plants is rated in % damage in comparison to the development of the untreated control.
(§5) The figure denote: • 0%=no effect (like untreated control) • 100%=total destruction

Amaranthus [2] = experiment: Pre-emergence test/greenhouse; settings: greenhouse, rated after three weeks
Experimental: as §1, §2, §3, §4, §5

Cyperus = experiment: Pre-emergence test/greenhouse; settings: greenhouse, rated after three weeks
Experimental: as §1, §2, §3, §4, §5

Sinapis [3] = experiment: Pre-emergence test/greenhouse; settings: greenhouse, rated after three weeks
Experimental: as §1, §2, §3, §4, §5

Alopecurus [4] = experiment: Pre-emergence test/greenhouse; settings: greenhouse, rated after three weeks
Experimental: as §1, §2, §3, §4, §5

Abutilon [5] = experiment: Pre-emergence test/greenhouse; settings: greenhouse, rated after three weeks
Experimental: as §1, §2, §3, §4, §5

Xanthium [6] = experiment: Pre-emergence test/greenhouse; settings: greenhouse, 60 g of ai/ha, rated after three weeks
Experimental: as §1, §2, §3, §4, §5

weeds [7] = experiment: Pre-emergence test, activity against weeds
Experimental: as §1, §2, §3, §4, §5

Setaria [8] = experiment: Post-emergence test/greenhouse; settings: greenhouse, rated after three weeks
Experimental: as §1
(§6) To produce a suitable preparation of active compound, one part by weight of active compound is mixed with the stated amount of solvent, the stated amount of emulsifier is added and the concentrate is diluted with water to the desired concentration.
(§7) Test plants which have a height of 5-15 cm are sprayed with the preparation of active compound such that the particular amounts of active compound desired are applied per unit area. The concentration of the spray liquor is chosen so that the particular amounts of active compound desired are applied in 1000 l of water/ha.
as §4
(§8) The figures denote: • 0%=no effect (like untreated control) • 100%=total destruction

Amaranthus [9] = experiment: Post-emergence test/greenhouse; settings: greenhouse, rated after three weeks
Experimental: as §1, §6, §7, §4, §8

Sinapis [10] = experiment: Post-emergence test/greenhouse; settings: greenhouse, rated after three weeks
Experimental: as §1, §6, §7, §4, §8

Alopecurus [11] = experiment: Post-emergence test/greenhouse; settings: greenhouse, rated after three weeks
Experimental: as §1, §6, §7, §4, §8

Avenafatua = experiment: Post-emergence test/greenhouse; settings: greenhouse, rated after three weeks
Experimental: as §1, §6, §7, §4, §8

Abutilon [12] = experiment: Post-emergence test/greenhouse; settings: greenhouse, rated after three weeks
Experimental: as §1, §6, §7, §4, §8

Xanthium [13] = experiment: Post-emergence test/greenhouse; settings: greenhouse, rated after three weeks
Experimental: as §1, §6, §7, §4, §8

weeds [14] = experiment: Post-emergence test, activity against weeds
Experimental: as §1, §6, §7, §4, §8

Wheat [15] = experiment: Pre-emergence test/greenhouse; settings: greenhouse, 60 g of ai/ha, rated after three weeks
Experimental: as §1, §2, §3, §4, §5

Stellaria [16] = experiment: Pre-emergence test/greenhouse; settings: greenhouse, 60 g of ai/ha, rated after three weeks
Experimental: as §1, §2, §3, §4, §5

Solanum [17] = experiment: Pre-emergence test/greenhouse; settings: greenhouse, 60 g of ai/ha, rated after three weeks
Experimental: as §1, §2, §3, §4, §5

Barley = experiment: Pre-emergence test/greenhouse; settings: greenhouse, 60 g of ai/ha, rated after three weeks
Experimental: as §1, §2, §3, §4, §5

Wheat [18] = experiment: Post-emergence test/greenhouse; settings: greenhouse, 15 g of ai/ha, rated after three weeks
Experimental: as §1, §6, §7, §4, §8

Stellaria [19] = experiment: Post-emergence test/greenhouse; settings: greenhouse, 15 g of ai/ha, rated after three weeks
Experimental: as §1, §6, §7, §4, §8

Matricaria = experiment: Post-emergence test/greenhouse; settings: greenhouse, 15 g of ai/ha, rated after three weeks
Experimental: as §1, §6, §7, §4, §8

Solanum [20] = experiment: Post-emergence test/greenhouse; settings: greenhouse, 15 g of ai/ha, rated after three weeks
Experimental: as §1, §6, §7, §4, §8

Echinochloa = experiment: Post-emergence test/greenhouse; settings: greenhouse, 15 g of ai/ha, rated after three weeks
Experimental: as §1, §6, §7, §4, §8

Galium = experiment: Pre-emergence test/greenhouse; settings: greenhouse, 250 g of ai/ha, rated after three weeks
Experimental: as §1, §2, §3, §4, §5

Veronica = experiment: Pre-emergence test/greenhouse; settings: greenhouse, 60 g of ai/ha, rated after three weeks
Experimental: as §1, §2, §3, §4, §5

Bromus = experiment: Pre-emergence test/greenhouse; settings: greenhouse, 60 g of ai/ha, rated after three weeks
Experimental: as §1, §2, §3, §4, §5

Maize = experiment: Pre-emergence test/greenhouse; settings: greenhouse, 60 g of ai/ha, rated after three weeks
Experimental: as §1, §2, §3, §4, §5

Viola = experiment: Pre-emergence test/greenhouse; settings: greenhouse, 60 g of ai/ha, rated after three weeks
Experimental: as §1, §2, §3, §4, §5

| SMILES | degree of damage to the plants, Setaria (Setaria [1]; 60 g of ai/ha) [%] | degree of damage to the plants, Amaranthus (Amaranthus [2]; 60 g of ai/ha) [%] | degree of damage to the plants, Cyperus (Cyperus; 60 g of ai/ha) [%] | degree of damage to the plants, Alopecurus (Alopecurus [4]; 60 g of ai/ha) [%] | degree of damage to the plants, Abutilon (Abutilon [5]; 60 g of ai/ha) [%] | activity against weeds (weeds [7]) | activity against weeds (weeds [14]) | degree of damage to the plants, Stellaria (Stellaria [16]) [%] | degree of damage to the plants, Setaria (Setaria [8]; 250 g of ai/ha) [%] | degree of damage to the plants, Amaranthus (Amaranthus [9]; 250 g of ai/ha) [%] | degree of damage to the plants, Sinapis (Sinapis [10]; 250 g of ai/ha) [%] | degree of damage to the plants, Alopecurus (Alopecurus [11]; 250 g of ai/ha) [%] | degree of damage to the plants, Avenafatua (Avenafatua; 250 g of ai/ha) [%] | degree of damage to the plants, Abutilon (Abutilon [12]; 250 g of ai/ha) [%] | degree of damage to the plants, Xanthium (Xanthium [13]; 250 g of ai/ha) [%] | further results |
| --- | --- | --- | --- | --- | --- | --- | --- | --- | --- | --- | --- | --- | --- | --- | --- | --- |
| COC(=O)c1csc(C)c1S(=O)(=O)NC(=O)n1nc(OC)n(C)c1=O [Example 2] | 95 | 100 | 100 | 95 | 95 | very strong activity | very strong activity |  |  |  |  |  |  |  |  | degree of damage to the plants, Sinapis (Sinapis [3]; 60 g of ai/ha): 95%; degree of damage to the plants, Xanthium (Xanthium [6]): 100%; degree of damage to the plants, Setaria (Setaria [8]; 60 g of ai/ha): 100%; degree of damage to the plants, Amaranthus (Amaranthus [9]; 60 g of ai/ha): 100%; degree of damage to the plants, Sinapis (Sinapis [10]; 60 g of ai/ha): 100%; degree of damage to the plants, Alopecurus (Alopecurus [11]; 60 g of ai/ha): 95%; degree of damage to the plants, Avenafatua (Avenafatua; 60 g of ai/ha): 80%; degree of damage to the plants, Abutilon (Abutilon [12]; 60 g of ai/ha): 100%; degree of damage to the plants, Xanthium (Xanthium [13]; 60 g of ai/ha): 100% |
| CCCOc1nn(C(=O)NS(=O)(=O)c2c(C(=O)OC)csc2C)c(=O)n1C [Example 3] |  | 95 |  | 80 |  | very strong activity | very strong activity | 95 |  |  |  |  |  |  |  | degree of damage to the plants, Wheat (Wheat [15]): 0%; degree of damage to the plants, Solanum (Solanum [17]): 90%; degree of damage to the plants, Barley (Barley): 0%; degree of damage to the plants, Wheat (Wheat [18]): 0%; degree of damage to the plants, Stellaria (Stellaria [19]): 100%; degree of damage to the plants, Amaranthus (Amaranthus [9]; 15 g of ai/ha): 95%; degree of damage to the plants, Matricaria (Matricaria): 90%; degree of damage to the plants, Solanum (Solanum [20]): 95%; degree of damage to the plants, Alopecurus (Alopecurus [11]; 15 g of ai/ha): 70%; degree of damage to the plants, Abutilon (Abutilon [12]; 15 g of ai/ha): 95%; degree of damage to the plants, Echinochloa (Echinochloa): 60% |
| CCCOc1nn(C(=O)NS(=O)(=O)c2c(C(=O)OC)csc2C)c(=O)n1C1CC1 [Example 7] |  |  |  |  |  | very strong activity | very strong activity |  | 90 | 100 | 100 | 95 | 100 | 100 | 90 | degree of damage to the plants, Setaria (Setaria [1]; 250 g of ai/ha): 95%; degree of damage to the plants, Amaranthus (Amaranthus [2]; 250 g of ai/ha): 95%; degree of damage to the plants, Cyperus (Cyperus; 250 g of ai/ha): 100%; degree of damage to the plants, Sinapis (Sinapis [3]; 250 g of ai/ha): 95%; degree of damage to the plants, Alopecurus (Alopecurus [4]; 250 g of ai/ha): 90%; degree of damage to the plants, Galium (Galium): 95%; degree of damage to the plants, Abutilon (Abutilon [5]; 250 g of ai/ha): 95% |
| COC(=O)c1csc(C)c1S(=O)(=O)NC(=O)n1nc(SC)n(C)c1=O [Example 12] | 100 |  | 100 |  | 100 | very strong activity | very strong activity | 100 | 100 | 100 | 100 | 95 | 100 | 100 | 100 | degree of damage to the plants, Veronica (Veronica): 100%; degree of damage to the plants, Bromus (Bromus): 100%; degree of damage to the plants, Maize (Maize): 10%; degree of damage to the plants, Viola (Viola): 100% |
